# Experimental data: publication PMC4300089, “Structure-Guided Design of Selective Epac1 and Epac2 Agonists” (PLoS Biology, 2015)
# Where a chain is given by its changes, count along the chain named. pEC50: −log10 of the molar value.
# Experiments:
# Format in all cases: biochemical
# Epac2^Δ280,K450E = molecular target: T1, Epac2^Δ280,K450E (Mus musculus, UniProt Q9EQZ6, K468E); assay: Epac activation assay, Epac2 K450E mutant
# T1 construct: made in house
# T1 sequence (Q9EQZ6 281-993 isoform Q9EQZ6-3 K450E): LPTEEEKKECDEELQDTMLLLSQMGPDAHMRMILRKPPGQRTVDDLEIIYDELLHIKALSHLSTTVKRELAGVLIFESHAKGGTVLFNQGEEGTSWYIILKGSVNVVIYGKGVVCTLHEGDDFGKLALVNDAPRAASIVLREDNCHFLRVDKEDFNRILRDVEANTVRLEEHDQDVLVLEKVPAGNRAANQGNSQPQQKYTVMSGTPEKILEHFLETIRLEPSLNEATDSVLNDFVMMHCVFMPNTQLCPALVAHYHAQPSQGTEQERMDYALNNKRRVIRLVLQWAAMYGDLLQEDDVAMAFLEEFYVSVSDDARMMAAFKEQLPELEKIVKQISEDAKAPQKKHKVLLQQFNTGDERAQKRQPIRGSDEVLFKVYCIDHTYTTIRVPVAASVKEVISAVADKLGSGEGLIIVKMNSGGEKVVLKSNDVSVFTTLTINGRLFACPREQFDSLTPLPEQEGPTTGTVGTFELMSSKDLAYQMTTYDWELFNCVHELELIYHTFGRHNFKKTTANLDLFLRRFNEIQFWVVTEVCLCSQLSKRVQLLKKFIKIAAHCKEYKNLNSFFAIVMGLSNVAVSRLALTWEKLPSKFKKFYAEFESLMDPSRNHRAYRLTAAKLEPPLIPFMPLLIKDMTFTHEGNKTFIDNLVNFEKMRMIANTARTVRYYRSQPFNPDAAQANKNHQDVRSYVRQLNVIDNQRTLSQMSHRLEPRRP
# Experimental: (§1) Murine Epac2 was used as all previous structural studies were performed with it.
# (§2) The activity of Epac was determined by a fluorescence assay. […] The fluorescence intensity of Rap1B•mGDP is approximately twice that of free mGDP, and thus, nucleotide exchange can be observed as a decay in fluorescence upon the addition of excess unlabeled GDP.
# PKA-IIα = molecular target: T2, PKA-IIα (Homo sapiens, UniProt P13861); assay: PKA activity assay, PKA-IIα; conditions: for A (PKA activity): PKAIIα
# T2 construct: made in house
# Experimental: The recombinant human PKA catalytic subunit (Cα1) and the four human PKA regulatory subunits (RIα, RIβ, RIIα, RIIβ) were expressed, purified, and characterized as described. […] PKA holoenzymes were formed by mixing the R- and C-subunit at a molar ratio of 1.2:1 and extensive dialysis against 20 mM MOPS (pH 7.0), 150 mM NaCl, 2.5 mM β-mercaptoethanol, supplemented with 1 mM ATP and 10 mM MgCl2 for PKA-I at 4°C overnight. PKA holoenzymes were used at about 20 nM for the activation assay. The apparent activation constants (Kact) were determined by fitting the concentration-dependent activity to a sigmoid dose-response model.
# Epac2^Δ280,K450A = molecular target: T3, Epac2^Δ280,K450A (Mus musculus, UniProt Q9EQZ6, K468A); assay: Epac activation assay, Epac2 K450A mutant
# T3 construct: made in house
# T3 sequence (Q9EQZ6 281-993 isoform Q9EQZ6-3 K450A): T1 sequence (Q9EQZ6 281-993 isoform Q9EQZ6-3 K450E) with E170A
# Experimental: as §1, §2
# T2 sequence (P13861 whole entry): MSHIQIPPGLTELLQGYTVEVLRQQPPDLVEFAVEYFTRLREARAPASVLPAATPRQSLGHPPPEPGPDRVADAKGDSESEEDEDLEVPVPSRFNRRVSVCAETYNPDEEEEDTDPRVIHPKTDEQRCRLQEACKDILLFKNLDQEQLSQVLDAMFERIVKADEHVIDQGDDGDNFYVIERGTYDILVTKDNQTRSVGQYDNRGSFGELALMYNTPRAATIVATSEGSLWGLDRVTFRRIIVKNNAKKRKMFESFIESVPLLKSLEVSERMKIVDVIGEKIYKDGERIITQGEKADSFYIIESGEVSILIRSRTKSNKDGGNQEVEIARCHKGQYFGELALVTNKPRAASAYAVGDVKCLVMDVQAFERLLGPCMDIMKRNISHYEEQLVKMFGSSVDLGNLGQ
structure (smiles),measurement,setting,value
"Nc1ncnc2c1nc(SCc1ccccc1)n2[C@@H]1O[C@@H]2CO[P@](O)(=S)O[C@H]2[C@H]1O [S-220, Sp-8-BnT-cAMPS]",kobs,"Epac2^Δ280,K450E; 0.001 μM compound",3.4e-05 s⁻¹
same,kobs,"Epac2^Δ280,K450E; 0.003 μM compound",4.1e-05 s⁻¹
same,kobs,"Epac2^Δ280,K450E; 0.005 μM compound",4.7e-05 s⁻¹
same,kobs,"Epac2^Δ280,K450E; 0.008 μM compound",5.6e-05 s⁻¹
same,kobs,"Epac2^Δ280,K450E; 0.01 μM compound",7.9e-05 s⁻¹
same,kobs,"Epac2^Δ280,K450E; 0.03 μM compound",0.000149 s⁻¹
same,kobs,"Epac2^Δ280,K450E; 0.04 μM compound",0.000174 s⁻¹
same,kobs,"Epac2^Δ280,K450E; 0.05 μM compound",0.000201 s⁻¹
same,kobs,"Epac2^Δ280,K450E; 0.06 μM compound",0.000239 s⁻¹
same,kobs,"Epac2^Δ280,K450E; 0.07 μM compound",0.000269 s⁻¹
same,kobs,"Epac2^Δ280,K450E; 0.08 μM compound",0.000291 s⁻¹
same,kobs,"Epac2^Δ280,K450E; 0.1 μM compound",0.000329 s⁻¹
same,kobs,"Epac2^Δ280,K450E; 0.2 μM compound",0.000621 s⁻¹
same,kobs,"Epac2^Δ280,K450E; 0.3 μM compound",0.000717 s⁻¹
same,kobs,"Epac2^Δ280,K450E; 0.4 μM compound",0.000786 s⁻¹
same,kobs,"Epac2^Δ280,K450E; 0.5 μM compound",0.000805 s⁻¹
same,kobs,"Epac2^Δ280,K450E; 0.6 μM compound",0.000891 s⁻¹
same,kobs,"Epac2^Δ280,K450E; 0.7 μM compound",0.000938 s⁻¹
same,kobs,"Epac2^Δ280,K450E; 0.8 μM compound",0.000942 s⁻¹
same,kobs,"Epac2^Δ280,K450E; 1 μM compound",0.000907 s⁻¹
same,kobs,"Epac2^Δ280,K450E; 2 μM compound",0.00111 s⁻¹
same,kobs,"Epac2^Δ280,K450E; 3 μM compound",0.00113 s⁻¹
same,kobs,"Epac2^Δ280,K450E; 4 μM compound",0.00112 s⁻¹
same,kobs,"Epac2^Δ280,K450E; 5 μM compound",0.00108 s⁻¹
same,kobs,"Epac2^Δ280,K450E; 6 μM compound",0.00112 s⁻¹
same,kobs,"Epac2^Δ280,K450E; 7 μM compound",0.00112 s⁻¹
same,kobs,"Epac2^Δ280,K450E; 8 μM compound",0.00112 s⁻¹
same,kobs,"Epac2^Δ280,K450E; 10 μM compound",0.00104 s⁻¹
same,Kact compared to cAMP (times higher / affinity reduced),PKA-IIα; PKA-IIα,three to eight times higher
same,pEC50,"PKA-IIα; PKA-IIα, read-out: Kact",6.57
same,A (PKA activity),PKA-IIα; concentration 1 μM,1.74E+01 U/mg
same,A (PKA activity),PKA-IIα; concentration 1.00E+01 μM,2.30E+01 U/mg
same,A (PKA activity),PKA-IIα; concentration 1.00E-01 μM,1.09E+01 U/mg
same,A (PKA activity),PKA-IIα; concentration 1.00E-02 μM,5.815 U/mg
same,A (PKA activity),PKA-IIα; concentration 1.00E-03 μM,5.193 U/mg
same,A (PKA activity),PKA-IIα; concentration 1.00E-04 μM,4.739 U/mg
same,A (PKA activity),PKA-IIα; concentration 1.00E-05 μM,3.782 U/mg
same,A (PKA activity),PKA-IIα; concentration 2.50E+02 μM,2.28E+01 U/mg
same,A (PKA activity),PKA-IIα; concentration 2.50E-01 μM,1.40E+01 U/mg
same,A (PKA activity),PKA-IIα; concentration 2.50E-02 μM,8.017 U/mg
same,kobs,"Epac2^Δ280,K450A; 0.001 μM compound",3.1e-05 s⁻¹
same,kobs,"Epac2^Δ280,K450A; 0.003 μM compound",3.7e-05 s⁻¹
same,kobs,"Epac2^Δ280,K450A; 0.005 μM compound",4.4e-05 s⁻¹
same,kobs,"Epac2^Δ280,K450A; 0.008 μM compound",5.2e-05 s⁻¹
same,kobs,"Epac2^Δ280,K450A; 0.02 μM compound",0.00011 s⁻¹
same,kobs,"Epac2^Δ280,K450A; 0.03 μM compound",0.000139 s⁻¹
same,kobs,"Epac2^Δ280,K450A; 0.04 μM compound",0.000168 s⁻¹
same,kobs,"Epac2^Δ280,K450A; 0.05 μM compound",0.000199 s⁻¹
same,kobs,"Epac2^Δ280,K450A; 0.06 μM compound",0.000232 s⁻¹
same,kobs,"Epac2^Δ280,K450A; 0.07 μM compound",0.00026 s⁻¹
same,kobs,"Epac2^Δ280,K450A; 0.08 μM compound",0.000277 s⁻¹
same,kobs,"Epac2^Δ280,K450A; 0.1 μM compound",0.000306 s⁻¹
same,kobs,"Epac2^Δ280,K450A; 0.2 μM compound",0.000564 s⁻¹
same,kobs,"Epac2^Δ280,K450A; 0.3 μM compound",0.000705 s⁻¹
same,kobs,"Epac2^Δ280,K450A; 0.4 μM compound",0.000743 s⁻¹
same,kobs,"Epac2^Δ280,K450A; 0.5 μM compound",0.000763 s⁻¹
same,kobs,"Epac2^Δ280,K450A; 0.6 μM compound",0.000845 s⁻¹
same,kobs,"Epac2^Δ280,K450A; 0.7 μM compound",0.000882 s⁻¹
same,kobs,"Epac2^Δ280,K450A; 0.8 μM compound",0.000882 s⁻¹
same,kobs,"Epac2^Δ280,K450A; 1 μM compound",0.000894 s⁻¹
same,kobs,"Epac2^Δ280,K450A; 2 μM compound",0.000904 s⁻¹
same,kobs,"Epac2^Δ280,K450A; 3 μM compound",0.000886 s⁻¹
same,kobs,"Epac2^Δ280,K450A; 4 μM compound",0.000912 s⁻¹
same,kobs,"Epac2^Δ280,K450A; 5 μM compound",0.000879 s⁻¹
same,kobs,"Epac2^Δ280,K450A; 6 μM compound",0.00102 s⁻¹
same,kobs,"Epac2^Δ280,K450A; 7 μM compound",0.00106 s⁻¹
same,kobs,"Epac2^Δ280,K450A; 8 μM compound",0.00109 s⁻¹
same,kobs,"Epac2^Δ280,K450A; 10 μM compound",0.00103 s⁻¹
same,kmax-value,"Epac2^Δ280,K450A; Epac2^Δ280,K450A",reduced to that of S-000
